Results reported in patent US12252524B2, “GIP/GLP1 co-agonist compounds” (Eli Lilly and Company, priority 2018, dated 2025).
Numbered stars: 1 amine (or outer) side, 2 acyl side, 3 side chain; on linkers, the order of the positions; unused ones are H or OH. Square brackets hold non-standard residues; d marks the D form. Side chains are listed from the residue outwards. Peptide text beside a SMILES is read from it. * marks the point of attachment. C20 diacid = O=C(O)CCCCCCCCCCCCCCCCCCC(=O)*; C18 diacid = O=C(O)CCCCCCCCCCCCCCCCC(=O)*; αMePhe(2-F) = C[C@](N)(Cc1ccccc1F)C(=O)O; γGlu = O=C(O)[C@H](CCC(=O)[*:2])N[*:1]; αMeL = CC(C)C[C@](C)(N)C(=O)O; Orn = NCCC[C@H](N)C(=O)O; AEEA = NCCOCCOCC(=O)O; Aib = CC(C)(N)C(=O)O

Columns and labels:
human Gcg receptor = biological target: T1, human Gcg receptor (Homo sapiens, UniProt P47871); test: [125I]-Glucagon binding (SPA), human Gcg receptor; settings: read-out: hGLcgR Ki, nM (SEM, n)
T1 construct: expressed in transfected cells; crude membranes
Method in brief: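 Cell pellets were lysed in hypotonic Tris buffer, pH 7.5, homogenized, and spun at low then high speed to give crude membranes. Ki was derived from the fitted IC50.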

human GIP receptor = biological target: T2, human GIP receptor (Homo sapiens, UniProt P48546); test: [125I]-GIP binding (SPA), human GIP receptor; settings: read-out: hGIPR Ki, nM (SEM, n)
T2 construct: expressed in transfected cells; crude membranes
T2 sequence (P48546 22-466): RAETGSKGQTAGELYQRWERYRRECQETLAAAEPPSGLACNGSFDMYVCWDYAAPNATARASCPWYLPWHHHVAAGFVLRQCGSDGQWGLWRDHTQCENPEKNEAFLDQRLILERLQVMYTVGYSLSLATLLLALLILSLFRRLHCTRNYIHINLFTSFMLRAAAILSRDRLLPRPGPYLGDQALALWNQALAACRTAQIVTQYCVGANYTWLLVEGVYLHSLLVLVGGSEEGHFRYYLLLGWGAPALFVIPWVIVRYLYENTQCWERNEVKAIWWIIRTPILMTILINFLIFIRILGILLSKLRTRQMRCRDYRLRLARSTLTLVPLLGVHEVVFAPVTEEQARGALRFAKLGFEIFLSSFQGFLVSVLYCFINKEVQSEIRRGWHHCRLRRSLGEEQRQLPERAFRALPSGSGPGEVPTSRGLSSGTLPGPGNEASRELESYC

[1] = biological target: human GLP-1 receptor (GLP-1R) (Homo sapiens, UniProt P43220); test: cAMP pharmacological functional assay in presence of casein, hGLP-1R; assay type: cell-based; settings: HEK293 cells expressing hGLP-1R, 0.1% Casein, geometric mean; read-out: hGLP1R cAMP Rel EC50 nM (SEM, n)
[2] = biological target: T3, gastric inhibitory peptide receptor (GIPR) (Homo sapiens, UniProt P48546); test: cAMP pharmacological functional assay in presence of casein, hGIPR; assay type: cell-based; settings: HEK293 cells expressing hGIPR, 0.1% Casein, geometric mean; read-out: hGIPR cAMP Rel EC50 nM (SEM, n)
T3 sequence (P48546 22-466): T2 sequence (P48546 22-466)

human GLP-1R = human GLP-1R (Homo sapiens, UniProt P43220); test: [125I]-GLP-1 binding (SPA), human GLP-1 receptor; design: expressed in transfected cells; crude membranes; settings: read-out: hGLP1R Ki, (nM) (SEM, n)
Method in brief: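 Ki values are geometric means with SEM over independent replicates on different days, derived from IC50s fitted by four-parameter nonlinear regression. The assay used crude cell membranes in HEPES buffer, pH 7.4, containing CaCl2, MgCl2, bacitracin and TWEEN-20.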

T1 sequence (P47871 26-477): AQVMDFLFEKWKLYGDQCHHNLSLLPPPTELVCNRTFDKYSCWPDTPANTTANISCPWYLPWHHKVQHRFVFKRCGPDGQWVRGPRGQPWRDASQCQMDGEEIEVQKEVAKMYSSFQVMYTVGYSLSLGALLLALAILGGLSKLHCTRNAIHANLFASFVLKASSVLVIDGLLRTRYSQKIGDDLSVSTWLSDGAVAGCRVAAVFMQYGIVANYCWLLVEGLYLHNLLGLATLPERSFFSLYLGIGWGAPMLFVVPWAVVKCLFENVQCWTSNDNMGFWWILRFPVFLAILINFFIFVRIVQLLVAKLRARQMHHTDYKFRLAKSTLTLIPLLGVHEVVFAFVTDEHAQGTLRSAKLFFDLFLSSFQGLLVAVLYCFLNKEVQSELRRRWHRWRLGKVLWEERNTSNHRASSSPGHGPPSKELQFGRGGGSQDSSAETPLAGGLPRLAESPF
Sequence of human GLP-1R (P43220 24-463): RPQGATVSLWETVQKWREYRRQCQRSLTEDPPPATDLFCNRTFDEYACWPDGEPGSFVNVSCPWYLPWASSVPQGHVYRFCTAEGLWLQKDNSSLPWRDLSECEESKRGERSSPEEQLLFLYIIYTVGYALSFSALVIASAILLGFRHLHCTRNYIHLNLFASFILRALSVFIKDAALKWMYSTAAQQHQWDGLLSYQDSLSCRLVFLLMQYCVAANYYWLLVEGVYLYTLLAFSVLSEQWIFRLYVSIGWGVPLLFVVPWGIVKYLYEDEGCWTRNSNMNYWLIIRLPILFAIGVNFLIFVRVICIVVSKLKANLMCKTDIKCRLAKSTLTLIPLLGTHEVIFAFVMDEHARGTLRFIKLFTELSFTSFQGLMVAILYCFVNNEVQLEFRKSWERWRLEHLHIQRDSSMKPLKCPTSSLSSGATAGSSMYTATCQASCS
Sequence of human GLP-1 receptor (GLP-1R) (P43220 24-463): as above

| SMILES | Ki (human Gcg receptor) [nM] | Ki (human GIP receptor) [nM] | EC50 [1] [nM] | EC50 [2] [nM] | Ki (human GLP-1R) [nM] |
| --- | --- | --- | --- | --- | --- |
| CC[C@H](C)[C@H](NC(=O)[C@H](CC(C)C)NC(=O)[C@H](Cc1ccc(O)cc1)NC(=O)[C@@H](CCC(=O)O)NC(=O)[C@@H](NC(=O)[C@H](Cc1ccccc1)NC(=O)[C@H](CCC(=O)O)NC(=O)C(C)(C)NC(=O)[C@H](CCC(N)=O)NC(=O)[C@H](C)NC(=O)[C@H](CCCCNC(=O)COCCOCCNC(=O)COCCOCCNC(=O)CC[C@H](NC(=O)CCCCCCCCCCCCCCCCC(=O)O)C(=O)O)NC(=O)[C@H](CCC(=O)O)NC(=O)[C@H](CC(=O)O)NC(=O)[C@H](CC(C)C)NC(=O)[C@](C)(CC(C)C)NC(=O)[C@@H](NC(=O)[C@H](CO)NC(=O)[C@H](Cc1ccc(O)cc1)NC(=O)[C@H](CC(=O)O)NC(=O)[C@H](CO)NC(=O)[C@@H](NC(=O)[C@](C)(Cc1ccccc1F)NC(=O)[C@@H](NC(=O)CNC(=O)[C@H](CCC(=O)O)NC(=O)C(C)(C)NC(=O)[C@@H](N)Cc1ccc(O)cc1)[C@@H](C)O)[C@@H](C)O)[C@@H](C)CC)[C@@H](C)CC)C(=O)N[C@@H](CCC(=O)O)C(=O)NCC(=O)NCC(=O)N1CCC[C@H]1C(=O)N[C@@H](CO)C(=O)N[C@@H](CO)C(=O)NCC(N)=O [Example 219] (H-Y[Aib]EGT[αMePhe(2-F)]TSDYSI[αMeL]LDEK([AEEA-AEEA-γGlu-C18 diacid])AQ[Aib]EFI[dE]YLIEGGPSSG-NH2) | 373 | 0.0689 | 0.0403 | 0.0341 | 2.01 |
| CC[C@H](C)[C@H](NC(=O)[C@H](CC(C)C)NC(=O)[C@H](Cc1ccc(O)cc1)NC(=O)[C@H](CCC(=O)O)NC(=O)[C@@H](NC(=O)[C@H](Cc1ccccc1)NC(=O)[C@H](C)NC(=O)C(C)(C)NC(=O)[C@H](CCC(N)=O)NC(=O)[C@H](C)NC(=O)[C@H](CCCCNC(=O)COCCOCCNC(=O)COCCOCCNC(=O)CC[C@H](NC(=O)CCCCCCCCCCCCCCCCCCC(=O)O)C(=O)O)NC(=O)[C@H](CCCCN)NC(=O)[C@H](CC(=O)O)NC(=O)[C@H](CC(C)C)NC(=O)[C@H](CC(C)C)NC(=O)[C@@H](NC(=O)[C@H](CO)NC(=O)[C@H](C)NC(=O)[C@H](CC(=O)O)NC(=O)[C@H](CO)NC(=O)[C@@H](NC(=O)[C@H](Cc1ccccc1)NC(=O)[C@@H](NC(=O)CNC(=O)[C@H](CCC(=O)O)NC(=O)C(C)(C)NC(=O)[C@@H](N)Cc1ccc(O)cc1)[C@@H](C)O)[C@@H](C)O)[C@@H](C)CC)[C@@H](C)CC)C(=O)N[C@@H](CCC(=O)O)C(=O)NCC(=O)NCC(=O)N1CCC[C@H]1C(=O)N[C@@H](CO)C(=O)N[C@@H](CO)C(=O)NCC(=O)N[C@@H](C)C(=O)N1CCC[C@H]1C(=O)N1CCC[C@H]1C(=O)N1CCC[C@H]1C(=O)N[C@@H](CO)C(N)=O [Example 85] (H-Y[Aib]EGTFTSDASILLDKK([AEEA-AEEA-γGlu-C20 diacid])AQ[Aib]AFIEYLIEGGPSSGAPPPS-NH2) | > 894 | 0.621 | 0.0518 | 1.67 | 1.87 |
| CC[C@H](C)[C@H](NC(=O)[C@H](CC(C)C)NC(=O)[C@H](Cc1ccc(O)cc1)NC(=O)[C@H](CCC(=O)O)NC(=O)[C@@H](NC(=O)[C@H](Cc1ccccc1)NC(=O)[C@H](C)NC(=O)C(C)(C)NC(=O)[C@H](CCC(N)=O)NC(=O)[C@H](C)NC(=O)[C@H](CCCCNC(=O)COCCOCCNC(=O)COCCOCCNC(=O)CC[C@H](NC(=O)CCCCCCCCCCCCCCCCCCC(=O)O)C(=O)O)NC(=O)[C@H](CCCCN)NC(=O)[C@H](CC(=O)O)NC(=O)[C@H](CC(C)C)NC(=O)[C@H](CC(C)C)NC(=O)[C@H](CO)NC(=O)[C@H](CO)NC(=O)[C@H](Cc1ccc(O)cc1)NC(=O)[C@H](CC(=O)O)NC(=O)[C@H](CO)NC(=O)[C@@H](NC(=O)[C@H](Cc1ccccc1)NC(=O)[C@@H](NC(=O)CNC(=O)[C@H](CCC(=O)O)NC(=O)C(C)(C)NC(=O)[C@@H](N)Cc1ccc(O)cc1)[C@@H](C)O)[C@@H](C)O)[C@@H](C)CC)C(=O)N[C@@H](CCC(=O)O)C(=O)NCC(=O)NCC(=O)N1CCC[C@H]1C(=O)N[C@@H](CO)C(=O)N[C@@H](CO)C(=O)NCC(=O)N[C@@H](C)C(=O)N1CCC[C@H]1C(=O)N1CCC[C@H]1C(=O)N1CCC[C@H]1C(=O)N[C@@H](CO)C(N)=O [Example 58] (H-Y[Aib]EGTFTSDYSSLLDKK([AEEA-AEEA-γGlu-C20 diacid])AQ[Aib]AFIEYLIEGGPSSGAPPPS-NH2; N-terminus assumed) | 339 | 0.105 | 0.18 | 0.266 | 2.77 |
| CC[C@H](C)[C@H](NC(=O)[C@H](CC(C)C)NC(=O)[C@H](Cc1ccc(O)cc1)NC(=O)[C@H](CCC(=O)O)NC(=O)[C@@H](NC(=O)[C@H](Cc1ccccc1)NC(=O)[C@H](C)NC(=O)C(C)(C)NC(=O)[C@H](CCC(N)=O)NC(=O)[C@H](C)NC(=O)[C@H](CCCCNC(=O)COCCOCCNC(=O)COCCOCCNC(=O)CC[C@H](NC(=O)CCCCCCCCCCCCCCCCCCC(=O)O)C(=O)O)NC(=O)[C@H](CCCCN)NC(=O)[C@H](CC(=O)O)NC(=O)[C@H](CC(C)C)NC(=O)[C@H](CC(C)C)NC(=O)[C@@H](NC(=O)[C@H](CO)NC(=O)[C@H](Cc1ccc(O)cc1)NC(=O)[C@H](CC(=O)O)NC(=O)[C@H](CO)NC(=O)[C@@H](NC(=O)[C@H](Cc1ccccc1)NC(=O)[C@@H](NC(=O)CNC(=O)[C@H](CCC(=O)O)NC(=O)[C@]1(C)CCCN1C(=O)[C@@H](N)Cc1ccc(O)cc1)[C@@H](C)O)[C@@H](C)O)[C@@H](C)CC)[C@@H](C)CC)C(=O)N[C@@H](CCC(=O)O)C(=O)NCC(=O)NCC(=O)N1CCC[C@H]1C(=O)N[C@@H](CO)C(=O)N[C@@H](CO)C(=O)NCC(=O)N[C@@H](C)C(=O)N1CCC[C@H]1C(=O)N1CCC[C@H]1C(=O)N1CCC[C@H]1C(=O)N[C@@H](CO)C(N)=O [Example 87] | 278 | 0.034 | 0.0801 | 0.0945 | 1.79 |
| CC[C@H](C)[C@H](NC(=O)[C@H](CC(C)C)NC(=O)[C@H](Cc1ccc(O)cc1)NC(=O)[C@H](CCC(=O)O)NC(=O)[C@@H](NC(=O)[C@](C)(Cc1ccccc1)NC(=O)[C@H](C)NC(=O)C(C)(C)NC(=O)[C@H](CCC(N)=O)NC(=O)[C@H](C)NC(=O)[C@H](CCCCNC(=O)COCCOCCNC(=O)COCCOCCNC(=O)CC[C@H](NC(=O)CCCCCCCCCCCCCCCCCCC(=O)O)C(=O)O)NC(=O)[C@H](CCCCN)NC(=O)[C@H](CC(=O)O)NC(=O)[C@H](CC(C)C)NC(=O)[C@H](CC(C)C)NC(=O)[C@@H](NC(=O)[C@H](CO)NC(=O)[C@H](Cc1ccc(O)cc1)NC(=O)[C@H](CC(=O)O)NC(=O)[C@H](CO)NC(=O)[C@@H](NC(=O)[C@H](Cc1ccccc1)NC(=O)[C@@H](NC(=O)CNC(=O)[C@H](CCC(=O)O)NC(=O)C(C)(C)NC(=O)[C@@H](N)Cc1ccc(O)cc1)[C@@H](C)O)[C@@H](C)O)[C@@H](C)CC)[C@@H](C)CC)C(=O)N[C@@H](CCC(=O)O)C(=O)NCC(=O)NCC(=O)N1CCC[C@H]1C(=O)N[C@@H](CO)C(=O)N[C@@H](CO)C(=O)NCC(=O)N[C@@H](C)C(=O)N1CCC[C@H]1C(=O)N1CCC[C@H]1C(=O)N1CCC[C@H]1C(=O)N[C@@H](CO)C(N)=O [Example 67] | 270 | 0.061 | 0.447 | 0.0913 | 10.2 |
| CC[C@H](C)[C@H](NC(=O)[C@H](CC(C)C)NC(=O)[C@H](Cc1ccc(O)cc1)NC(=O)[C@@H](CCC(=O)O)NC(=O)[C@@H](NC(=O)[C@H](Cc1ccccc1)NC(=O)[C@H](CCC(=O)O)NC(=O)C(C)(C)NC(=O)[C@H](CCC(N)=O)NC(=O)[C@H](C)NC(=O)[C@H](CCCCNC(=O)COCCOCCNC(=O)COCCOCCNC(=O)CC[C@H](NC(=O)CCCCCCCCCCCCCCCCC(=O)O)C(=O)O)NC(=O)[C@H](CCCN)NC(=O)[C@H](CC(=O)O)NC(=O)[C@H](CC(C)C)NC(=O)[C@H](CC(C)C)NC(=O)[C@@H](NC(=O)[C@H](CO)NC(=O)[C@H](Cc1ccc(O)cc1)NC(=O)[C@H](CC(=O)O)NC(=O)[C@H](CO)NC(=O)[C@@H](NC(=O)[C@](C)(Cc1ccccc1F)NC(=O)[C@@H](NC(=O)CNC(=O)[C@H](CCC(=O)O)NC(=O)C(C)(C)NC(=O)[C@@H](N)Cc1ccc(O)cc1)[C@@H](C)O)[C@@H](C)O)[C@@H](C)CC)[C@@H](C)CC)C(=O)N[C@@H](CCC(=O)O)C(=O)NCC(=O)NCC(=O)N1CCC[C@H]1C(=O)N[C@@H](CO)C(=O)N[C@@H](CO)C(=O)NCC(=O)N[C@@H](C)C(=O)N1CCC[C@H]1C(=O)N1CCC[C@H]1C(=O)N1CCC[C@H]1C(=O)N[C@@H](CO)C(N)=O [Example 248] (H-Y[Aib]EGT[αMePhe(2-F)]TSDYSILLD[Orn]K([AEEA-AEEA-γGlu-C18 diacid])AQ[Aib]EFI[dE]YLIEGGPSSGAPPPS-NH2) | > 1050 | 0.0397 | 0.0428 | 0.0328 | 2.4 |
